For 27 molecules, IC50 results are on record in patent publication US9249096B2, “Pyrrolinone carboxamide compounds useful as endothelial lipase inhibitors” (Bristol-Myers Squibb Company, priority 2011, dated 2016).

The structures appear in SMILES notation.

Sequence of endothelial lipase (EL) (Q9Y5X9 21-500): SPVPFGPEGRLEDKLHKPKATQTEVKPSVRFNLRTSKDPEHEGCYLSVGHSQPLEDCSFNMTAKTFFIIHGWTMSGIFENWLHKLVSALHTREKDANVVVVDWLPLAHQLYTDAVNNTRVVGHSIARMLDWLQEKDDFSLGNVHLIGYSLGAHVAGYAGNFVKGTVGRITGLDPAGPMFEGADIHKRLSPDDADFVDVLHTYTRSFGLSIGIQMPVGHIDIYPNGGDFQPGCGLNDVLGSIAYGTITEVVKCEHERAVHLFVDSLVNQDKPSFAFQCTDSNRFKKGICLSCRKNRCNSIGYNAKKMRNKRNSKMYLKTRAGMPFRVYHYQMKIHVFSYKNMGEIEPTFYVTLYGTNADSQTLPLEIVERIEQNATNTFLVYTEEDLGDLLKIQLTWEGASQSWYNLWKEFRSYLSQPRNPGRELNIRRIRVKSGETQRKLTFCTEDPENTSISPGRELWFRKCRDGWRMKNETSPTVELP

In the experiment the target is endothelial lipase (EL) (Homo sapiens (Human), UniProt Q9Y5X9). Put plainly: Endothelial lipase (EL) enzymatic assay with fluorescent substrate A10070 in DMPG vesicles. The format is biochemical. Particulars: conditioned media from HT-1080 cells overexpressing endogenous EL; 20 min preincubation at 37° C.; read-out: HLE_EL_CRC IC50. How it is done:
Endothelial lipase activity was measured using a fluorescent substrate, A10070, (Invitrogen, CA) doped into an artificial vesicle containing DMPG (Avanti Polar Lipids) as the excipient. Vesicles were prepared by combining 285 uL of 1 mM DMPG in a 1:1 mixture of MeOH and CHCl3 with 15 uL of 1 mM A10070 in a 1:1 mixture of MeOH and CHCl3. The mixture was dried under nitrogen and resuspended in 150 uL of 50 mM HEPES pH 8.0 buffer containing 100 mM NaCl and 0.2 mM EDTA. The sample was allowed to sit at rt for 15 min and then was sonicated 3×4 mins on ice with a Branson Sonicator using duty cycle 1. This preparation provides vesicles with a mole fraction of 0.05 for the FRET substrate.
The enzymatic assay was measured using white, opaque 96-well half area plates. Each well contained 60 uL of assay buffer (50 mM HEPES pH 8.0, 50 mM NaCl and 1 mM CaCl2) and 2 ul of a DMSO solution containing compound of interest. Conditioned media obtained from HT-1080 cells, which were transformed by RAGE technology (Athersys) to overexpress endogenous EL, was added and the reaction was allowed to incubate for 20 min at 37° C. with gentle agitation. The reaction was started by the addition of 20 uL of a 1:4 dilution of vesicles. The final total reaction volume was 100 uL. The reaction rates were measured on a Gemini plate reader with an excitation wavelength of 488 nm and a emission of 530 nm. Readings were taken every 20 seconds for 10 min with agitation between each reading. The slope of the linear portion of the readout was used to calculate the rate of the reaction.
The exemplified examples disclosed in the present invention were tested in the EL assay described above and found having EL inhibitory activity.
As to `CN1C(=O)C(O)=C(C(=O)NCCCc2ccc(Cl)c(Cl)c2)C1CCc1ccccc1` (single isomer, unassigned; isomer a) [Example 195, N-(3-(3,4-dichlorophenyl)propyl)-4-hydroxy-1-methyl-5-oxo-2-phenethyl-2,5-dihydro-1H-pyrrole-3-carboxamide (isomer A)], the half-maximal inhibitory concentration (IC50) is 523 nM.

Turning to `CN1CC(C(=O)NCCc2ccc(Cl)c(Cl)c2)=C(O)C1=O` [Example 1, N-(3,4-dichlorophenethyl)-4-hydroxy-1-methyl-5-oxo-2,5-dihydro-1H-pyrrole-3-carboxamide], the IC50 stood at 528 nM.

Consider `CN1CC(C(=O)NCCc2ccccc2)=C(O)C1=O` [Example 3, 4-hydroxy-1-methyl-5-oxo-N-phenethyl-2,5-dihydro-1H-pyrrole-3-carboxamide], for which the half-maximal inhibitory concentration (IC50) was 2950 nM.

With `CN1CC(C(=O)NCCc2ccc(Cl)cc2)=C(O)C1=O` [Example 5, N-(4-chlorophenethyl)-4-hydroxy-1-methyl-5-oxo-2,5-dihydro-1H-pyrrole-3-carboxamide], the IC50 was 559 nM.

Regarding `CN1C(=O)C(O)=C(C(=O)NCCCc2ccc(Cl)c(Cl)c2)C1C(C)(C)C` (stereo not drawn) [Example 17, 2-tert-butyl-N-(3-(3,4-dichlorophenyl)propyl)-4-hydroxy-1-methyl-5-oxo-2,5-dihydro-1H-pyrrole-3-carboxamide], the IC50 worked out at 430 nM.

On to `Cc1ccc(CC2C(C(=O)NCCCc3ccc(Cl)c(Cl)c3)=C(O)C(=O)N2C)cc1` (stereo not drawn) [Example 30, N-(3-(3,4-dichlorophenyl)propyl)-4-hydroxy-1-methyl-2-(4-methylbenzyl)-5-oxo-2,5-dihydro-1H-pyrrole-3-carboxamide], for which the IC50 is 584 nM.

Turning to `O=C(NCCCc1ccc(Cl)c(Cl)c1)C1=C(O)C(=O)N(C2CCC2)C1` [Example 39, 1-cyclobutyl-N-(3-(3,4-dichlorophenyl)propyl)-4-hydroxy-5-oxo-2,5-dihydro-1H-pyrrole-3-carboxamide], the half-inhibitory concentration (IC50) came out at 5.09 nM.

On to `O=C(NCCCc1ccc(Cl)c(Cl)c1)C1=C(O)C(=O)N(Cc2ccccc2)C1` [Example 40, 1-benzyl-N-(3-(3,4-dichlorophenyl)propyl)-4-hydroxy-5-oxo-2,5-dihydro-1H-pyrrole-3-carboxamide], for which the concentration for half-maximal inhibition (IC50) amounted to 3.65 nM.

`CC(C)CN1CC(C(=O)NCCCc2ccc(Cl)c(Cl)c2)=C(O)C1=O` [Example 42, N-(3-(3,4-dichlorophenyl)propyl)-4-hydroxy-1-isobutyl-5-oxo-2,5-dihydro-1H-pyrrole-3-carboxamide]: the IC50 is 2.93 nM.

As to `O=C(NCCCc1ccc(Cl)c(Cl)c1)C1=C(O)C(=O)N(CCc2ccccc2)C1` [Example 44, N-(3-(3,4-dichlorophenyl)propyl)-4-hydroxy-5-oxo-1-phenethyl-2,5-dihydro-1H-pyrrole-3-carboxamide], the half-inhibitory concentration (IC50) turned out to be 3.22 nM.

For `CC(C)CCN1CC(C(=O)NCCCc2ccc(Cl)c(Cl)c2)=C(O)C1=O` [Example 45, N-(3-(3,4-dichlorophenyl)propyl)-4-hydroxy-1-isopentyl-5-oxo-2,5-dihydro-1H-pyrrole-3-carboxamide], the half-maximal inhibitory concentration (IC50) was determined as 2.71 nM.

Turning to `CCCCN1CC(C(=O)NCCCc2ccc(Cl)c(Cl)c2)=C(O)C1=O` [Example 46, 1-butyl-N-(3-(3,4-dichlorophenyl)propyl)-4-hydroxy-5-oxo-2,5-dihydro-1H-pyrrole-3-carboxamide], the 50% inhibitory concentration (IC50) worked out at 3.25 nM.

Consider `O=C(NCCCc1ccc(Cl)c(Cl)c1)C1=C(O)C(=O)N(Cc2cccc(Cl)c2)C1` [Example 47, 1-(3-chlorobenzyl)-N-(3-(3,4-dichlorophenyl)propyl)-4-hydroxy-5-oxo-2,5-dihydro-1H-pyrrole-3-carboxamide], for which the IC50 came to 3.3 nM.

As to `O=C(NCCCc1ccc(Cl)c(Cl)c1)C1=C(O)C(=O)N(Cc2cccc(F)c2)C1` [Example 50, N-(3-(3,4-dichlorophenyl)propyl)-1-(3-fluorobenzyl)-4-hydroxy-5-oxo-2,5-dihydro-1H-pyrrole-3-carboxamide], the IC50 came out at 5.99 nM.

With `O=C(NCCCc1ccc(Cl)c(Cl)c1)C1=C(O)C(=O)N(Cc2ccc(F)cc2)C1` [Example 51, N-(3-(3,4-dichlorophenyl)propyl)-1-(4-fluorobenzyl)-4-hydroxy-5-oxo-2,5-dihydro-1H-pyrrole-3-carboxamide], the half-maximal inhibitory concentration (IC50) was found to be 5.52 nM.

Consider `O=C(NCCCc1ccc(Cl)c(Cl)c1)C1=C(O)C(=O)N(CCc2ccccc2Cl)C1` [Example 53, 1-(2-chlorophenethyl)-N-(3-(3,4-dichlorophenyl)propyl)-4-hydroxy-5-oxo-2,5-dihydro-1H-pyrrole-3-carboxamide], for which the IC50 stood at 5.24 nM.

For the molecule `CC(C)(C)CCN1CC(C(=O)NCCCc2ccc(Cl)c(Cl)c2)=C(O)C1=O` [Example 55, N-(3-(3,4-dichlorophenyl)propyl)-1-(3,3-dimethylbutyl)-4-hydroxy-5-oxo-2,5-dihydro-1H-pyrrole-3-carboxamide], the IC50 was 5.8 nM.

For `CCOCCN1CC(C(=O)NCCCc2ccc(Cl)c(Cl)c2)=C(O)C1=O` [Example 57, N-(3-(3,4-dichlorophenyl)propyl)-1-(2-ethoxyethyl)-4-hydroxy-5-oxo-2,5-dihydro-1H-pyrrole-3-carboxamide], the IC50 was determined as 6.3 nM.

Regarding `O=C(NCCCc1ccc(Cl)c(Cl)c1)C1=C(O)C(=O)N(Cc2cc(Cl)cc(Cl)c2)C1` [Example 60, 1-(3,5-dichlorobenzyl)-N-(3-(3,4-dichlorophenyl)propyl)-4-hydroxy-5-oxo-2,5-dihydro-1H-pyrrole-3-carboxamide], the concentration for half-maximal inhibition (IC50) is 5.64 nM.

With `O=C(NCCCc1ccc(Cl)c(Cl)c1)C1=C(O)C(=O)N(CCc2ccc(F)cc2)C1` [Example 64, N-(3-(3,4-dichlorophenyl)propyl)-1-(4-fluorophenethyl)-4-hydroxy-5-oxo-2,5-dihydro-1H-pyrrole-3-carboxamide], the half-inhibitory concentration (IC50) was 5.61 nM.

For `CC(C)OCCN1CC(C(=O)NCCCc2ccc(Cl)c(Cl)c2)=C(O)C1=O` [Example 65, N-(3-(3,4-dichlorophenyl)propyl)-4-hydroxy-1-(2-isopropoxyethyl)-5-oxo-2,5-dihydro-1H-pyrrole-3-carboxamide], the IC50 worked out at 1.6 nM.

For `CN1CC(C(=O)NCCCc2ccccc2)=C(O)C1=O` [Example 166, 4-hydroxy-1-methyl-5-oxo-N-(3-phenylpropyl)-2,5-dihydro-1H-pyrrole-3-carboxamide], the 50% inhibitory concentration (IC50) stood at 6440 nM.

Take `CN1CC(C(=O)NCCCc2c(Cl)cccc2Cl)=C(O)C1=O` [Example 208, N-(3-(2,6-dichlorophenyl)propyl)-4-hydroxy-1-methyl-5-oxo-2,5-dihydro-1H-pyrrole-3-carboxamide]: the 50% inhibitory concentration (IC50) was determined as 384 nM.

On to `CC(CCc1ccc(Cl)c(Cl)c1)NC(=O)C1=C(O)C(=O)N(C)C1` (stereo not drawn) [Example 229, N-(4-(3,4-dichlorophenyl)butan-2-yl)-4-hydroxy-1-methyl-5-oxo-2,5-dihydro-1H-pyrrole-3-carboxamide], for which the half-maximal inhibitory concentration (IC50) was 4550 nM.

Take `CC(C)C(CCc1ccc(Cl)c(Cl)c1)NC(=O)C1=C(O)C(=O)N(C)C1` (stereo not drawn) [Example 230, N-(1-(3,4-dichlorophenyl)-4-methylpentan-3-yl)-4-hydroxy-1-methyl-5-oxo-2,5-dihydro-1H-pyrrole-3-carboxamide]: the IC50 was 9640 nM.

As to `CN1CC(C(=O)NC(CCc2ccc(Cl)c(Cl)c2)c2ccccc2)=C(O)C1=O` (stereo not drawn) [Example 235, N-(3-(3,4-dichlorophenyl)-1-phenylpropyl)-4-hydroxy-1-methyl-5-oxo-2,5-dihydro-1H-pyrrole-3-carboxamide], the half-inhibitory concentration (IC50) came out at 3060 nM.

Take `CCN1CC(C(=O)NCCCc2cccc(OC)n2)=C(O)C1=O` [Example 265, 1-ethyl-4-hydroxy-N-(3-(6-methoxypyridin-2-yl)propyl)-5-oxo-2,5-dihydro-1H-pyrrole-3-carboxamide]: the IC50 was found to be 3460 nM.

What is called IC50 is the concentration needed to halve the response being measured.
